Test results from ChEMBL document CHEMBL1152002, “Synthesis of inhibitors of -1,3-fucosyltransferase” (Bioorg Med Chem Lett, 1997).
pIC50: −log10 of the molar value.

test: Compound was tested for the inhibition of Fucosyltransferase 4 alpha 1,3 at 8.5 uM GDP-fucose

| Compound | pIC50 |
| --- | --- |
| C[C@H]1[C@@H](O)[C@H](O)[C@H](O)CN1Cc1ccccc1O[C@@H]1O[C@@H](CO)[C@H](O)[C@H](O)[C@@H]1O | 4.09 |
| C[C@H]1[C@@H](O)[C@H](O)[C@H](O)CN1CCCO[C@@H]1O[C@@H](CO)[C@H](O)[C@H](O)[C@@H]1O | < 3.30 |
| C[C@H]1[C@@H](O)[C@H](O)[C@H](O)CN1CCCCO[C@@H]1O[C@@H](CO)[C@H](O)[C@H](O)[C@@H]1O | 3.63 |
| Nc1nc2c(ncn2[C@@H]2O[C@H](COP(=O)(O)OP(=O)(O)O)[C@@H](O)[C@H]2O)c(=O)[nH]1 | 5.30 |
| C[C@@H]1NC[C@@H](O)[C@H](O)[C@@H]1O [DEOXYFUCONOJIRIMYCIN] | 2.46 |

test: Compound was tested for the inhibition of Fucosyltransferase 4 alpha 1,3 at 2 uM GDP-fucose

| Compound | pIC50 |
| --- | --- |
| C[C@H]1[C@@H](O)[C@H](O)[C@H](O)CN1Cc1ccccc1O[C@@H]1O[C@@H](CO)[C@H](O)[C@H](O)[C@@H]1O | 4.30 |
